Measurements from ChEMBL document CHEMBL1129171, “BMS-187257, a potent, selective, and novel heterocyclic 3 adrenergic receptor agonist” (Bioorg Med Chem Lett, 1996).
Calls of active or inactive are those of the source. The calls are words filed in the database; no cut-off is given here.

What was measured:
[1] = biological target: Beta-2 adrenergic receptor (Homo sapiens, UniProt P07550); experiment: biochemical
Description: Compound was tested for its binding affinity against beta2 adrenergic receptor in CHO cell membrane using [125I]iodocyanopindolol as the radioligand.

[2] = biological target: Beta-1 adrenergic receptor (Homo sapiens, UniProt P08588); experiment: Compound was tested for its binding affinity against Beta-1 adrenergic receptor in CHO cell membrane using [125I]iodocyanopindolol as the radioligand.; assay type: cell membranes
Chain of Beta-1 adrenergic receptor (P08588 whole entry): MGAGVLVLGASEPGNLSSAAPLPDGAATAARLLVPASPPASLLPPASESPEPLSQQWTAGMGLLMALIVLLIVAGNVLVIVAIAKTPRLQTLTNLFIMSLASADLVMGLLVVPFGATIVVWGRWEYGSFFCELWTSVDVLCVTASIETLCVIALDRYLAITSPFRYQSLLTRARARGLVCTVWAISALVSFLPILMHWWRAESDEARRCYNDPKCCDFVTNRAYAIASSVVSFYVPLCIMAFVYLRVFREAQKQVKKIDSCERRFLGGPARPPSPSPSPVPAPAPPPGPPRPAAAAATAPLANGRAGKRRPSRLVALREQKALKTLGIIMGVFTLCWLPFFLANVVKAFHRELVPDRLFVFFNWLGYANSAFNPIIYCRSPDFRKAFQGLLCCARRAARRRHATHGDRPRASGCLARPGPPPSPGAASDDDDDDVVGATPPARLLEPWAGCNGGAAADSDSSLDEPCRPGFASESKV

[3] = biological target: T1, Beta-3 adrenergic receptor (Homo sapiens, UniProt P13945); experiment: Compound was tested for its binding affinity against beta3 adrenergic receptor in CHO cell membrane using [125I]iodocyanopindolol as the radioligand.; assay type: cell membranes
Target sequence in this assay (P13945 whole entry): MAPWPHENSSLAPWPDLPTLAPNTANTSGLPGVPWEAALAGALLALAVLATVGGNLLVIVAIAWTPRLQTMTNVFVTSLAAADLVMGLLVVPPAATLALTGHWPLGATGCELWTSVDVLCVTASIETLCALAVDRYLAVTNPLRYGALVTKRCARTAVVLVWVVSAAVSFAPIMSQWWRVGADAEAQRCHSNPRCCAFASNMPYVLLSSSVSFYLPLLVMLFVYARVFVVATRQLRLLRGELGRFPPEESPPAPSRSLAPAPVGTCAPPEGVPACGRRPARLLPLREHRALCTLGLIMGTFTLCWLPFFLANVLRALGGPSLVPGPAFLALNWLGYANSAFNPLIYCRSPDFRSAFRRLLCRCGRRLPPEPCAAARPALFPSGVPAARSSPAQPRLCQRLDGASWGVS

[4] = biological target: T1, Beta-3 adrenergic receptor; experiment: Compound was tested for its ability to stimulate adenylyl cyclase activity in CHO Beta-3 adrenergic receptor cell membrane.; assay type: functional
Target sequence in this assay (P13945 whole entry): as above

[5] = biological target: T1, Beta-3 adrenergic receptor; experiment: stimulation of adenylyl cyclase activity in CHO-beta-3 adrenergic receptor cell membrane; expressed as maximal cyclase activity as a fraction of (-)-isoproterenol (IA = 1).; assay type: functional
Target sequence in this assay (P13945 whole entry, looked up): as the sequence (P13945 whole entry) above

[6] = biological target: T1, Beta-3 adrenergic receptor; experiment: Compound was tested for its ability to stimulate adenylyl cyclase activity in CHO-beta-3 adrenergic receptor cell membrane.; assay type: functional
Target sequence in this assay (P13945 whole entry): as above

Chain of Beta-2 adrenergic receptor (P07550 whole entry): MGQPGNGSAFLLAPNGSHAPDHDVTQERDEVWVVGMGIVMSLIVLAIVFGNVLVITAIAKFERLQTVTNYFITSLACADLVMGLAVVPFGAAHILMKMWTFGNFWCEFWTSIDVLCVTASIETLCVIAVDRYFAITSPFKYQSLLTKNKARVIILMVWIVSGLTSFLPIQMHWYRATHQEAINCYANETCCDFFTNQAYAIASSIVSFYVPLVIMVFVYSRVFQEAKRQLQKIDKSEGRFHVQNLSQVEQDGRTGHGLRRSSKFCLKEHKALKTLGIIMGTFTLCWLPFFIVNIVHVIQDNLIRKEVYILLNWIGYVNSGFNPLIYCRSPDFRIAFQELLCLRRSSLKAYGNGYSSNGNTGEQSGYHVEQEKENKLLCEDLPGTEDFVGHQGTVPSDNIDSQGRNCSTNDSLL

How did the Ki [1] turn out when `C[C@H](Cc1ncc(CCCC(=O)O)s1)NCC(O)c1cccc(Cl)c1` (stereo partly specified) was run?
The Ki was 13900 nM.

What about the Ki [2] of the same compound?
Its Ki is 6400 nM.

And the Ki [3]?
Its Ki is 36500 nM.

How did the EC50 [4] turn out when `C[C@H](Cc1ncc(CCCC(=O)O)s1)NC[C@H](O)COc1ccccc1` was run?
The EC50 was 630 nM.

And the IA [5]?
Its IA is 0.72.

What about the Ki [1] of the same compound?
Its Ki is 1600 nM.

And the Ki [2]?
Its Ki is 1300 nM.

What about the Ki [3] of the same compound?
The Ki was 760 nM.

Which results are given for `C[C@H](Cc1ncc(CCC(=O)O)s1)NCC(O)c1cccc(Cl)c1` (stereo partly specified)?
EC50 [4]: 27600 nM; IA [5]: 0.39; Ki [1]: 11400 nM; Ki [2]: 58100 nM; Ki [3]: 146000 nM

How did the IA [5] turn out when `C[C@H](Cc1ncc(CCCCC(=O)O)s1)NC[C@H](O)COc1ccccc1` was run?
Its IA is “inactive”.

And the Ki [1]?
Its Ki is 150 nM.

What about the Ki [2] of the same compound?
The Ki was 440 nM.

What about the Ki [3] of the same compound?
The Ki was 390 nM.

`C[C@H](Cc1ccc(OCC(=O)O)cc1)NC[C@H](O)c1cccc(Cl)c1` was tested. Which IA [5] did it give?
Its IA is 0.67.

`O=C(O)COc1ccc(OCCNC[C@H](O)COc2ccccc2)cc1` was tested. Which EC50 [6] did it give?
The EC50 was 550 nM.

And the IA [5]?
The IA was 0.71.

And the Ki [3]?
The Ki was 520 nM.

`C[C@H](Cc1ncc(CCC(=O)O)s1)NC[C@H](O)COc1ccccc1` was tested. Which EC50 [4] did it give?
Its EC50 is 2760 nM.

And the IA [5]?
Its IA is 0.56.

What about the Ki [1] of the same compound?
Its Ki is 1230 nM.

And the Ki [2]?
Its Ki is 3440 nM.

What about the Ki [3] of the same compound?
Its Ki is 3530 nM.
